Results as given in patent publication US6525001B1, “Substituted pyrimidine and pyridine herbicides” (Mid-American Commercialization Corporation, priority 1997, dated 2003).

Key:
Assay type in all cases: in vivo
Parameters in all cases: key: 0 is no effect; 10 is complete control
[1] = test system: smallflower flatsedge (Cyperus difformis); assay: Test B flood test
Summary of the method: (§1)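 Plants were grown to the 2-leaf stage before treatment with test chemical, then held in a greenhouse for twelve to sixteen days. Injury was visually rated against untreated controls on a 0–10 scale, where 0 is no effect and 10 is complete control.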

rice (Oryza sativa) = assay: Test B flood test
Summary of the method: as §1

[2] = test system: bamyardgrass (Echinochloa crus-galli); assay: Test B flood test
Summary of the method: as §1

[3] = test system: duck salad (Heteranthera limosa); assay: Test B flood test
Summary of the method: as §1

[4] = test system: bedstraw (Galium aparine); assay: Test B pre-/postemergence
Summary of the method: (§2)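 Seeds were planted and sprayed preemergence, while plants at 2 to 18 cm (1- to 4-leaf stage) were sprayed postemergence at the same time, with test chemical in a non-phytotoxic solvent mixture containing surfactant. After twelve to sixteen days in a greenhouse, injury was rated visually against untreated controls on a 0–10 scale.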

[5] = test system: momingglory (Ipomoea hederacea); assay: Test B pre-/postemergence
Summary of the method: as §2

[6] = test system: wheat (Triticum aestivum); assay: Test B pre-/postemergence
Summary of the method: as §2

[7] = test system: broadleaf signalgrass (Brachiaria decumbens); assay: Test B pre-/postemergence
Summary of the method: as §2

[8] = test system: pigweed (Amaranthus retroflexus); assay: Test B pre-/postemergence
Summary of the method: as §2

[9] = test system: velvetleaf (Abutilon theophrasti); assay: Test B pre-/postemergence
Summary of the method: as §2

corn (Zea mays) = assay: Test B pre-/postemergence
Summary of the method: as §2

[10] = test system: giant foxtail (Setaria faberii); assay: Test B pre-/postemergence
Summary of the method: as §2

[11] = test system: sugar beet (Beta vulgaris); assay: Test B pre-/postemergence
Summary of the method: as §2

[12] = test system: cocklebur (Xanthium strumarium); assay: Test B pre-/postemergence
Summary of the method: as §2

rape (Brassica napus) = assay: Test B pre-/postemergence
Summary of the method: as §2

[13] = Rate 62 g/ha, Postemergence (flood test)
[14] = Rate 125 g/ha, Postemergence, flood test
[15] = Rate 250 g/ha, Postemergence (flood test species)
[16] = Rate 500 g/ha, Postemergence (flood test species)

Cc1cnc(-c2ccc(OC(F)(F)F)cc2)nc1Cc1cccc(C(F)(F)F)c1 [Compound 16]
8: Plant response rating, Redroot pigweed ([8]; Rate 250 g/ha, Postemergence) | Plant response rating, Redroot pigweed ([8]; Rate 250 g/ha, Preemergence) | Plant response rating, Redroot pigweed ([8]; Rate 500 g/ha, Preemergence) | Plant response rating, Giant foxtail ([10]; Rate 500 g/ha, Preemergence) | Plant response rating, Sugarbeets ([11]; Rate 62 g/ha, Postemergence) | Plant response rating, Sugarbeets ([11]; Rate 125 g/ha, Postemergence)
2: Plant response rating, S. Flatsedge [1, 14] | Plant response rating, S. Flatsedge [1, 15] | Plant response rating, Barnyardgrass [2, 13] | Plant response rating, Ducksalad [3, 16] | B. signalgrass plant response rating ([7]; Rate 125 g/ha, Preemergence) | Plant response rating, Velvetleaf ([9]; Rate 125 g/ha, Postemergence) | Plant response rating, Velvetleaf ([9]; Rate 250 g/ha, Postemergence) | Plant response rating, Velvetleaf ([9]; Rate 500 g/ha, Postemergence) | Plant response rating, Rape (rape (Brassica napus); Rate 125 g/ha, Postemergence) | Plant response rating, Rape (rape (Brassica napus); Rate 250 g/ha, Postemergence)
7: Plant response rating, B. signalgrass ([7]; Rate 500 g/ha, Preemergence) | Plant response rating, Giant foxtail ([10]; Rate 250 g/ha, Preemergence) | Plant response rating, Sugarbeets ([11]; Rate 250 g/ha, Preemergence)
0: Plant response rating, Ducksalad [3, 13] | Plant response rating, Ducksalad [3, 14] | Bedstraw plant response rating ([4]; Rate 62 g/ha, Preemergence) | Bedstraw plant response rating ([4]; Rate 125 g/ha, Preemergence) | Plant response rating, Bedstraw ([4]; Rate 250 g/ha, Preemergence) | Morningglory plant response rating ([5]; Rate 62 g/ha, Preemergence) | Morningglory plant response rating ([5]; Rate 125 g/ha, Preemergence) | Plant response rating, Morningglory ([5]; Rate 250 g/ha, Preemergence) | Plant response rating, Wheat ([6]; Rate 62 g/ha, Postemergence) | Wheat plant response rating ([6]; Rate 62 g/ha, Preemergence) | Plant response rating, Wheat ([6]; Rate 125 g/ha, Postemergence) | Wheat plant response rating ([6]; Rate 125 g/ha, Preemergence) | Plant response rating, Wheat ([6]; Rate 250 g/ha, Postemergence) | Plant response rating, Wheat ([6]; Rate 250 g/ha, Preemergence) | Plant response rating, Wheat ([6]; Rate 500 g/ha, Preemergence) | B. signalgrass plant response rating ([7]; Rate 62 g/ha, Preemergence) | Redroot pigweed plant response rating ([8]; Rate 62 g/ha, Preemergence) | Redroot pigweed plant response rating ([8]; Rate 125 g/ha, Preemergence) | Velvetleaf plant response rating ([9]; Rate 62 g/ha, Preemergence) | Velvetleaf plant response rating ([9]; Rate 125 g/ha, Preemergence) | Corn plant response rating (corn (Zea mays); Rate 62 g/ha, Preemergence) | Corn plant response rating (corn (Zea mays); Rate 125 g/ha, Preemergence) | Plant response rating, Corn (corn (Zea mays); Rate 250 g/ha, Preemergence) | Plant response rating, Corn (corn (Zea mays); Rate 500 g/ha, Preemergence) | Giant foxtail plant response rating ([10]; Rate 62 g/ha, Preemergence) | Sugarbeets plant response rating ([11]; Rate 62 g/ha, Preemergence) | Cocklebur plant response rating ([12]; Rate 62 g/ha, Preemergence) | Cocklebur plant response rating ([12]; Rate 125 g/ha, Preemergence) | Plant response rating, Cocklebur ([12]; Rate 250 g/ha, Preemergence) | Plant response rating, Cocklebur ([12]; Rate 500 g/ha, Preemergence) | Rape plant response rating (rape (Brassica napus); Rate 62 g/ha, Preemergence) | Rape plant response rating (rape (Brassica napus); Rate 125 g/ha, Preemergence) | Plant response rating, Rape (rape (Brassica napus); Rate 250 g/ha, Preemergence)
1: Plant response rating, S. Flatsedge [1, 13] | Plant response rating, Rice (rice (Oryza sativa); [13]) | Plant response rating, Rice (rice (Oryza sativa); [14]) | Plant response rating, Ducksalad [3, 15] | Plant response rating, Bedstraw ([4]; Rate 500 g/ha, Preemergence) | Plant response rating, Morningglory ([5]; Rate 125 g/ha, Postemergence) | Plant response rating, Morningglory ([5]; Rate 250 g/ha, Postemergence) | Plant response rating, Morningglory ([5]; Rate 500 g/ha, Postemergence) | Plant response rating, Morningglory ([5]; Rate 500 g/ha, Preemergence) | Plant response rating, Wheat ([6]; Rate 500 g/ha, Postemergence) | Plant response rating, B. signalgrass ([7]; Rate 62 g/ha, Postemergence) | Plant response rating, B. signalgrass ([7]; Rate 125 g/ha, Postemergence) | Plant response rating, B. signalgrass ([7]; Rate 250 g/ha, Postemergence) | Plant response rating, B. signalgrass ([7]; Rate 500 g/ha, Postemergence) | Plant response rating, Velvetleaf ([9]; Rate 62 g/ha, Postemergence) | Plant response rating, Velvetleaf ([9]; Rate 250 g/ha, Preemergence) | Plant response rating, Velvetleaf ([9]; Rate 500 g/ha, Preemergence) | Plant response rating, Corn (corn (Zea mays); Rate 62 g/ha, Postemergence) | Plant response rating, Corn (corn (Zea mays); Rate 125 g/ha, Postemergence) | Plant response rating, Corn (corn (Zea mays); Rate 250 g/ha, Postemergence) | Plant response rating, Corn (corn (Zea mays); Rate 500 g/ha, Postemergence) | Plant response rating, Giant foxtail ([10]; Rate 62 g/ha, Postemergence) | Plant response rating, Giant foxtail ([10]; Rate 125 g/ha, Postemergence) | Plant response rating, Giant foxtail ([10]; Rate 250 g/ha, Postemergence) | Sugarbeets plant response rating ([11]; Rate 125 g/ha, Preemergence) | Plant response rating, Rape (rape (Brassica napus); Rate 62 g/ha, Postemergence) | Plant response rating, Rape (rape (Brassica napus); Rate 500 g/ha, Preemergence)
3: Plant response rating, S. Flatsedge [1, 16] | Plant response rating, Rice (rice (Oryza sativa); [15]) | Plant response rating, Barnyardgrass [2, 14] | Plant response rating, Bedstraw ([4]; Rate 62 g/ha, Postemergence) | Plant response rating, B. signalgrass ([7]; Rate 250 g/ha, Preemergence) | Giant foxtail plant response rating ([10]; Rate 125 g/ha, Preemergence) | Plant response rating, Giant foxtail ([10]; Rate 500 g/ha, Postemergence)
6: Plant response rating, Redroot pigweed ([8]; Rate 125 g/ha, Postemergence) | Plant response rating, Cocklebur ([12]; Rate 500 g/ha, Postemergence)
4: Plant response rating, Rice (rice (Oryza sativa); [16]) | Plant response rating, Barnyardgrass [2, 15] | Plant response rating, Barnyardgrass [2, 16] | Plant response rating, Bedstraw ([4]; Rate 125 g/ha, Postemergence) | Plant response rating, Bedstraw ([4]; Rate 250 g/ha, Postemergence) | Plant response rating, Cocklebur ([12]; Rate 62 g/ha, Postemergence) | Plant response rating, Cocklebur ([12]; Rate 125 g/ha, Postemergence)
5: Plant response rating, Bedstraw ([4]; Rate 500 g/ha, Postemergence) | Plant response rating, Redroot pigweed ([8]; Rate 62 g/ha, Postemergence) | Plant response rating, Cocklebur ([12]; Rate 250 g/ha, Postemergence) | Plant response rating, Rape (rape (Brassica napus); Rate 500 g/ha, Postemergence)
9: Plant response rating, Redroot pigweed ([8]; Rate 500 g/ha, Postemergence) | Plant response rating, Sugarbeets ([11]; Rate 250 g/ha, Postemergence) | Plant response rating, Sugarbeets ([11]; Rate 500 g/ha, Postemergence) | Plant response rating, Sugarbeets ([11]; Rate 500 g/ha, Preemergence)
